Source: patent US12275685B2, “Oligo-benzamide analogs and their use in cancer treatment” (Board of Regents, The University of Texas System, priority 2018, dated 2025)

How the values were obtained:
D2A1 xenografts = test: D2A1 syngeneic tumor model; format: in vivo, mice; conditions: 10 mg/kg daily
Protocol: FIGS. 35A-P: ERX-41 is potent against TNBC in vivo. (FIG. 35A) Following establishment of subcutaneous MDA-MB-231 xenograft tumors (200 mm^3), 10 mg/kg single dose ERX-41 was administered either by oral or intraperitoneal route. The tumor was harvested 0, 0, 5, 1, 5, 3, 6 and 24 h after drug administration and the drug levels assayed by LC-MS/MS and graphed. (FIGS. 35B-E) Following establishment of MDA-MB-231 xenografts in mammary fat pad in vivo (100 mm^3 size), daily administration of 10 mg/kg ERX-41 or vehicle control (N=8 each group) was initiated. Tumor volumes were measured using digital calipers and graphed (FIG. 35B). Tumor weights (FIG. 35C), body weights (FIG. 35D) and extirpated tumors (FIG. 35E) at end of study are also shown. (FIGS. 35F-H) Following establishment of D2A1 syngeneic xenografts in mammary fat pad in vivo (100 mm^3 size), daily administration of 10 mg/kg ERX-41 or vehicle control (N=8 each group) was initiated. Tumor volumes were measured using digital calipers and graphed (FIG. 35F) along with tumor weights (FIG. 35G) and body weights (FIG. 35H). (FIGS. 35I-P) Effect of ERX-41 on the growth (FIG. 351, FIG. 35K, FIG. 35M, FIG. 35O) and tumor weights (FIG. 35J, FIG. 35L, FIG. 35N, FIG. 35P) of four distinct TNBC PDXs compared to vehicle. *p<0.05. **p<0.01; ***p<0.001. […]

[1] = system: normal human mammary epithelial cells (HMEC); test: WST, MTT or CellTiter-Glo assays in HMEC; format: cell-based; conditions: at >1 μM
Source text: (§1) FIGS. 34A-C: Dose response curve of ERX-41 in multiple TNBC. cell lines using WST-1 assays (FIG. 34A) and CellTiter-Glo assays (FIG. 34B). […] Quantification of the number of dead cells over time seen with live cell imaging in MDAMB-231 and HMEC cells is shown.
(§2) To evaluate the generalizability of the inventors' findings, they evaluated ERX-41 in a large number of TNBC and ERa-positive cell lines.

[2] = Tolerability of ERX-41 in mice; format: in vivo; conditions: daily oral or intraperitoneal, up to 200 mg/kg
Protocol: Additionally, ERX-41 was detectable within 1.5 h in established subcutaneous MDA-MB-231 xenograft tumors after oral or intraperitoneal administration (FIG. 35A). […] ERX-41 decreased tumor growth, as shown by extirpated tumor sizes at the end of study (FIG. 35C and FIG. 35E). […] The inventors validated the activity of ERX-41 in four distinct TNBC PDXs established in the mammary fat pad (FIGS. 35I-P).

[3] = system: 22 human preclinical TNBC cell line models; test: CellTiter-Glo cell viability assay in TNBC cell lines; format: cell-based; conditions: 22 TNBC cell lines, read-out: IC50, CellTiter-Glo cell viability assays
Source text: as §1, §2

[4] = system: estrogen receptor-positive, estrogen receptor-negative and therapy resistant ERMT cells; test: MTT assay of TK41 on breast cancer cells; format: cell-based
Protocol: FIGS. 2A-2C show the potency of TK41 (IC50 from 50-500 nM) on estrogen receptor-positive (FIG. 2A), estrogen receptor-negative (FIG. 2B) and therapy resistant ERMT (FIG. 2C) cells determined by MTT assay.

TNBC cells = test: Live cell imaging with SYTOX Green, TNBC; format: cell-based; conditions: within 30 hours of treatment
Source text: as §1, §2

[5] = system: parental SUM-159 xenografts; test: Parental SUM-159 xenografts; format: in vivo, SCID mice; conditions: 10 mg/kg daily
Source text: FIGS. 37A-J: The molecular target of ERX-41 in TNBC is LIPA. […] (FIG. 37B) Knockout clones of LIPA, ACACA, TMEM208, SOAT1 and ARID1A were generated in MDA-MB-231 cells and evaluated for response to ERX-41 using doseresponse curves using CellTiter-Glo assays in vitro. (FIGS. 37C-D) Effect of knockout of LIPA in SUM-159 (FIG. 37C) and MDA-MB436 (FIG. 37D) on dose response curve to ERX-41 using CellTiter-Glo assays in vitro. (FIGS. 37E-F) Dose response curves of SUM-159 parental cells and clones with LIPA KO to thapsigargin (FIG. 37E) and paclitaxel (FIG. 37F). (FIGS. 37G-H) Live cell imaging studies with SYTOX Green to examine ability of 1 μM ERX-41 to induce cell death in parental SUM-159 and SUM-159 clones with LIPA KO, with quantitation (FIG. 37G) and time-lapsed photomicrographs at 0 h and 30 h ((FIG. 37H). (FIGS. 37I-J) SCID mice were implanted with either parental SUM-159 or SUM-159 clones with LIPA KO (n=6, each group) and tumors were allowed to establish (150 mm^3). Following daily intraperitoneal administration of 10 mg/kg ERX-41, tumor sizes were measured and graphed (FIG. 37I), along with mice body weights (FIG. 37J). *p<0.05. **p<0.01; ***p<0.001.
The molecular target of ERX-41 in TNBC is LIPA. […] Knockout clones of LIPA, SLC5A3, SMAP2, TMEM208, SOAT1 and ARID1A were generated in multiple TNBC cells and evaluated for response to ERX-41.

CC(C)COc1cc(C(=O)Nc2ccc(C(=O)N[C@H]3CC[C@H](C)CC3)cc2OCC(C)C)ccc1NC(=O)c1ccc([N+](=O)[O-])c(OCCO)c1 [TK41]
growth of D2A1 xenografts (D2A1 xenografts): significantly reduce the growth | effect against HMEC [1]: did not have significant effect | tolerability [2]: well tolerated | IC50 [3]: < 250 nM | IC50 ([4]; ER-positive, ER-negative and therapy resistant ERMT cells, MTT assay): 50 to 500 nM | effect on endocrine therapy resistant breast cancer cells ([4]; endocrine therapy resistant breast cancer cells): very effective | cell death, share of cells (TNBC cells): > 90% | response of parental SUM-159 xenografts [5]: responded significantly
